Key:
Influenza A virus [1] = experiment: Antiviral activity against Influenza A virus (A/PR 8/34 (H1N1)) infected in MDCK cells assessed as reduction in virus-induced cytopathic effect measured after 72 hrs by MTS assay; type: functional, organism-based; conditions: A/Puerto Rico/8/1934(H1N1)
[2] = Cytotoxicity against MDCK cells assessed as change in cell morphology measured after 72 hrs by microscopic analysis; type: cell-based, Canis lupus familiaris; conditions: dog
[3] = Cytotoxicity against MDCK cells assessed as reduction in cell viability measured after 72 hrs by MTS assay; type: cell-based, Canis lupus familiaris; conditions: dog
Influenza A virus [4] = experiment: Antiviral activity against Influenza A virus (A/PR 8/34 (H1N1)) infected in MDCK cells assessed as reduction in virus-induced cytopathic effect measured after 72 hrs by microscopic analysis; type: functional, organism-based; conditions: A/Puerto Rico/8/1934(H1N1)
[5] = Selectivity index, ratio of CC50 for MDCK cells to EC50 for antiviral activity against Influenza A virus (A/Puerto Rico/8/1934(H1N1)) infected in MDCK cells; type: toxicity, cell-based; conditions: dog, read-out: Ratio CC50/EC50

Structure (SMILES)	EC50 (Influenza A virus [1]) [µM]	MCC at 72 h [2] [µM]	CC50 at 72 h [3] [µM]	EC50 (Influenza A virus [4]) [µM]	selectivity ratio [5]
COC(=O)C[C@H](NC(=O)OC(C)(C)C)C(=O)N(Cc1ccc(F)cc1)C1(C(=O)NCc2ccccc2)CCN(Cc2cccc(F)c2)CC1	1.6	84	73	1.6	–
COC(=O)C[C@H](NC(=O)OC(C)(C)C)C(=O)N(Cc1ccc(C(F)(F)F)cc1)C1(C(=O)NCc2ccccc2)CCN(Cc2ccccc2)CC1	> 100	84	54	> 100	–
COC(=O)C[C@H](NC(=O)OC(C)(C)C)C(=O)N(Cc1ccc(F)cc1)C1(C(=O)NCc2ccccc2)CCN(c2ccccc2)CC1	> 100	20	8.2	> 100	–
C[C@H](NC(=O)OC(C)(C)C)C(=O)N(Cc1ccc(F)cc1)C1(C(=O)NCc2ccccc2)CCN(Cc2ccccc2)CC1	11	> 100	> 100	10	–
COC(=O)C[C@H](NC(=O)OC(C)(C)C)C(=O)N(Cc1ccc(F)c(F)c1)C1(C(=O)NCc2ccccc2)CCN(Cc2ccccc2)CC1	> 100	20	52	> 100	–
COC(=O)C[C@H](NC(=O)OC(C)(C)C)C(=O)N(CCNc1ccccc1)C1(C(=O)NCc2ccccc2)CCN(Cc2ccccc2)CC1	> 100	14	68	> 100	–
COC(=O)CCC(=O)N(Cc1ccc(F)cc1)C1(C(=O)NCc2ccccc2)CCN(Cc2ccccc2)CC1	24	16	40	25	–
COC(=O)C[C@H](NC(=O)OC(C)(C)C)C(=O)N(Cc1cccc(F)c1)C1(C(=O)NCc2ccccc2)CCN(Cc2ccccc2)CC1	5.2	47	75	4.1	≤ 10
COC(=O)C[C@H](NC(=O)OC(C)(C)C)C(=O)N(Cc1ccc(F)cc1)C1(C(=O)NCc2ccccc2)CCN(Cc2cc(F)cc(F)c2)CC1	> 100	100	84	> 100	–
COC(=O)C[C@H](N)C(=O)N(Cc1ccc(F)cc1)C1(C(=O)NCc2ccccc2)CCN(Cc2ccccc2)CC1	< 0.8	60	54	< 0.8	–
CCC(C)N(C(=O)[C@H](CC(=O)OC)NC(=O)OC(C)(C)C)C1(C(=O)NCc2ccccc2)CCN(Cc2ccccc2)CC1 (stereo partly drawn)	> 100	84	53	> 100	–
CC[C@H](C)[C@H](NC(=O)OC(C)(C)C)C(=O)N(Cc1ccccc1)C1(C(=O)NCc2ccccc2)CCN(Cc2ccccc2)CC1	> 100	> 100	> 100	> 100	–
COC(=O)C[C@H](NC(=O)OC(C)(C)C)C(=O)NC1(C(=O)NCc2ccccc2)CCN(Cc2ccccc2)CC1	> 100	100	85	> 100	–
COC(=O)C[C@H](NC(=O)OCc1ccccc1)C(=O)N(Cc1ccc(F)cc1)C1(C(=O)NCc2ccccc2)CCN(Cc2ccccc2)CC1	> 100	2.6	1.9	2.7	–
COC(=O)CC[C@H](NC(=O)OC(C)(C)C)C(=O)N(Cc1ccc(F)cc1)C1(C(=O)NCc2ccccc2)CCN(Cc2ccccc2)CC1	10	> 100	> 100	9.8	≤ 10
CC(C)(C)OC(=O)N[C@@H](Cc1ccccc1)C(=O)N(Cc1ccc(F)cc1)C1(C(=O)NCc2ccccc2)CCN(Cc2ccccc2)CC1	> 100	100	56	> 100	–
COC(=O)C[C@H](NC(=O)OC(C)(C)C)C(=O)N(Cc1ccc(F)cc1)C1(C(=O)NCc2ccccc2)CCN(CCc2ccccc2)CC1	> 100	100	41	> 100	–

Structure (SMILES)	EC50 (Influenza A virus [1]) [µM]	MCC at 72 h [2] [µM]	CC50 at 72 h [3] [µM]	EC50 (Influenza A virus [4]) [µM]	selectivity ratio [5]
CC[C@H](C)[C@H](NC(=O)OCc1ccccc1)C(=O)N(C1CC1)C1(C(=O)NCc2ccccc2)CCN(Cc2ccccc2)CC1	9	> 100	> 100	5.1	8
COC(=O)C[C@H](NC(=O)OC(C)(C)C)C(=O)N(Cc1ccc(F)cc1)C1(C(=O)NCc2ccccc2)CCN(C2CCCCC2)CC1	> 100	73	42	> 100	–
COC(=O)C[C@H](NC(=O)OC(C)(C)C)C(=O)N(Cc1ccc(F)cc1)C1(C(=O)NCc2ccccc2)CCN(C)CC1	36	17	9.5	36	–
COC(=O)C[C@H](NC(=O)OC(C)(C)C)C(=O)N(Cc1ccc(F)cc1)C1(C(=O)NC(C)(C)C)CCN(Cc2ccccc2)CC1	> 100	80	50	> 100	–
COC(=O)C[C@H](NC(=O)OC(C)(C)C)C(=O)N(Cc1ccccc1)C1(C(=O)NCc2ccccc2)CCN(Cc2ccccc2)CC1	10	> 100	> 100	9.3	≤ 10
COC(=O)C[C@H](NC(=O)OC(C)(C)C)C(=O)N(Cc1ccc([N+](=O)[O-])cc1)C1(C(=O)NCc2ccccc2)CCN(Cc2ccccc2)CC1	> 100	20	> 100	10	–
CC(C)(C)OC(=O)N[C@@H](CC(N)=O)C(=O)N(Cc1ccccc1)C1(C(=O)NCc2ccccc2)CCN(Cc2ccccc2)CC1	6.7	> 100	> 100	6.3	≤ 10
CC[C@H](C)[C@H](NC(=O)OCc1ccccc1)C(=O)N(C1CC1)C1(C(=O)NC(C)(C)C)CCN(Cc2ccccc2)CC1	3.9	100	59	4.3	13
COC(=O)C[C@H](NC(=O)OC(C)(C)C)C(=O)N(Cc1ccc(F)cc1)C1(C(=O)NCc2ccccc2)CC[N+](C)(Cc2ccccc2)CC1 (stereo partly drawn)	> 100	100	55	> 100	–
COC(=O)C[C@H](NC(=O)OC(C)(C)C)C(=O)N(Cc1ccc(F)cc1)C1(C(=O)NCS(=O)(=O)c2ccc(C)cc2)CCN(Cc2ccccc2)CC1	> 100	4	6.4	> 100	–
COC(=O)C[C@H](NC(=O)OC(C)(C)C)C(=O)N(C)C1(C(=O)NCc2ccccc2)CCN(Cc2ccccc2)CC1	> 100	20	25	14	–
COC(=O)C[C@H](NC(=O)OC(C)(C)C)C(=O)N(Cc1ccc(F)cc1)C(C)(C)C(=O)NCc1ccccc1	> 100	20	10	> 100	–
COC(=O)C[C@H](NC(=O)OC(C)(C)C)C(=O)N(Cc1ccc(F)cc1)C1(C(=O)NC2CCCCC2)CCN(Cc2ccccc2)CC1	> 100	100	44	> 100	–
COC(=O)C[C@H](NC(=O)OC(C)(C)C)C(=O)N(Cc1ccc(C)cc1)C1(C(=O)NCc2ccccc2)CCN(Cc2ccccc2)CC1	> 100	> 100	> 100	6.9	–
COC(=O)C[C@H](NC(=O)OC(C)(C)C)C(=O)N(C1CC1)C1(C(=O)NCc2ccccc2)CCN(Cc2ccccc2)CC1	> 100	84	56	> 100	–
COC(=O)C[C@H](NC(=O)OC(C)(C)C)C(=O)N(Cc1ccc(F)cc1)C1(C(=O)NCc2ccccc2)CCNCC1	> 89	100	48	> 73	–

Source: ChEMBL document CHEMBL4680243, “N-benzyl 4,4-disubstituted piperidines as a potent class of influenza H1N1 virus inhibitors showing a novel mechanism of hemagglutinin fusion peptide interaction” (Eur J Med Chem, 2020)
